Test results published in patent publication US11230545B2, “Heterocyclic compound” (Takeda Pharmaceutical Company Limited, priority 2018, dated 2022).

Key:
recombinant human MALT1 = biological target: T1, recombinant human MALT1 (Homo sapiens, UniProt Q9UDY8); assay: Measurement of MALT1 enzyme inhibitory activity; type: biochemical; details: read-out: MALT1 enzyme inhibition rate (%) at 3 μM compound
T1 construct: to form a human MALT1 (340-789aa) dimer; His tag (from pET28a, N-terminal) (N); yeast GCN4 leucine zipper (251-281aa), fusion partner for dimerisation (N); translates to GSGSGS), between GCN4 zipper and MALT1 (N); His tag (C-terminal) (C); made in house; host or cells: E. coli BL21 (DE3)
T1 sequence (Q9UDY8 340-789): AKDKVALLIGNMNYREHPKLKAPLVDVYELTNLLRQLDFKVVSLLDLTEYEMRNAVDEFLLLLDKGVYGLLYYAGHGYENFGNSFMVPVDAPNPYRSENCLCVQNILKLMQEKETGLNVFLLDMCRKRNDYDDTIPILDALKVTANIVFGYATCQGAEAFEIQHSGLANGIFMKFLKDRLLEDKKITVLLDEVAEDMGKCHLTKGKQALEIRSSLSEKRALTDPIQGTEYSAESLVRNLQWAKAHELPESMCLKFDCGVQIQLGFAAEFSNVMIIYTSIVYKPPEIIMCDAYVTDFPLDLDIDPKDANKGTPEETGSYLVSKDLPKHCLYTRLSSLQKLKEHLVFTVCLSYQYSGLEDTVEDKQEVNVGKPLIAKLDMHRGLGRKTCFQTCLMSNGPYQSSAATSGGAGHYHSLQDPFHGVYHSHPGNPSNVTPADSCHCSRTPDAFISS
T1 sequence (P03069 251-281 partner limits assumed): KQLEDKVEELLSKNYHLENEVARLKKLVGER
Experimental: On the human MALT1 gene, PCR was carried out using GC-030-[…] (pENTR221/MALT1, GeneCopoeia) as a template with primers having BamH I restriction enzyme at the N-terminal and Not I restriction enzyme at the C-terminal to form a human MALT1 (340-789aa) dimer. […] Both of the obtained fragments were treated with the restriction enzymes, and inserted between Nde I and Not I of a pET28a (Novagen) vector to yield a recombinant human MALT1 protein expression vector pET28a/His-LZ-hMALT1v1 (340-789)-His. The recombinant human MALT1 protein was prepared by transforming the expression plasmid prepared as above with ECOS Competent E. coli BL21 (DE3) (Nippon Gene Co., Ltd.). Escherichia coli obtained by transformation was inoculated into 300 mL of LB medium (1% tryptone, 0.5% yeast extract, 0.5% sodium chloride, 0.01% ampicillin) and cultured at 30° C. for 16 hours. […] Furthermore, culturing was carried out for 16 hours to induce expression of human MALT1 protein. After completion of the culture, the culture solution was centrifuged at 5,000 rpm for 10 minutes. […] This crushed liquid was centrifuged (15,300×G, 30 min, TOMY MX-301), and the obtained supernatant was passed through and adsorbed to a Ni-NTA Superflow (QIAGEN) column previously equilibrated with 50 mM Tris-HCl pH 8.0, 300 mM NaCl, 5 mM DTT and 10% glycerol, followed by elution in a buffer containing 50 mM Tris-HCl pH 8.0, 300 mM NaCl, 5 mM DTT, 10% glycerol and 250 mM imidazole. […] The prepared protein was stored at -30° C., and the protein concentration was measured with a BCA Protein Assay Kit (PIERCE) using BSA as a standard. […] Subsequently, 2 μL of a purified recombinant human MALT1 enzyme solution was added, followed by incubation for 60 minutes at room temperature. To the mixture were added 2 μL of a substrate solution (75 μM Ac-LRSR-AFC (SM Biochemicals), 20 mM HEPES (Dojin Laboratories), 10 mM KCl (Wako Pure Chemical Industries, Ltd.), 1.5 mM MgCl2 (Sigma-Aldrich), 1 mM EDTA (pH 8.0) (Nippon Gene Co., Ltd.), 0.01% Triton X-100 (Sigma-Aldrich) and 1 mM DTT (Wako Pure Chemical Industries, Ltd.), followed by incubation for 60 minutes at room temperature. The fluorescence values of excitation 400 nm and emission 485 nm immediately after substrate addition and after enzymatic reaction were measured with a plate reader Envision (PerkinElmer), and the fluorescence values increased by enzymatic reaction were used for calculation of the inhibition rate (%).

OCI-Ly3 cells = assay: Measurement of growth inhibitory activity using OCI-Ly3 cells; type: cell-based; details: Homo sapiens, 144 h, 3 μm compound, 6 days, read-out: Cell growth inhibition rate (%) at 3 μm compound
Experimental: OCI-Ly3 cells were seeded in a cell culture medium IMDM (Fujifilm Wako Pure Chemical Corporation) containing 20% FCS (fetal calf serum, Thermo Fisher Scientific) and monothioglycerol (Fujifilm Wako Pure Chemical Corporation) so as to be at 1.25×10^3 cells/well on a 96-well plate. Cell Titer-Glo solution (Promega) was added to cells to which the test compound had not been added, followed by stirring at room temperature for 15 minutes. Subsequently, the luminescence value was measured with Envision (PerkinElmer) on the day of seeding. Cells to which the test compound dissolved in dimethyl sulfoxide (Fujifilm Wako Pure Chemical Corporation) had been added were allowed to stand in a CO2 incubator (37° C.) for 6 days. Subsequently, the luminescence value was measured in the same manner. The inhibition rate (%) of the test compound on OCI-Ly3 cell growth was calculated by the following formula. Cell growth inhibition rate (%)=(1−(Luminescent value on day 6 of test compound treatment−Luminescent value before test compound treatment)/(Luminescent value on day 6 without compound addition−Luminescent value before compound treatment))×100

| inhibition at 3 µM (recombinant human MALT1) | Structure (SMILES) | inhibition at 3 µM (OCI-Ly3 cells) |
| --- | --- | --- |
| 99% | CO[C@@H](C)c1c(NC(=O)Nc2cnc(OC(F)F)c(C#N)c2)cnn2cc(C)nc12 [Example 5, (S)—N-(5-Cyano-6-(difluoromethoxy)pyridin-3-yl)-N′-(8-(1-methoxyethyl)-2-methylimidazo[1,2-b]pyridazin-7-yl)urea] | 93% |
| 108% | CO[C@@H](C)c1c(NC(=O)Nc2cnc(-n3nccn3)c(C(F)(F)F)c2)cnn2cc(C)nc12 [Example 6, (S)—N-(8-(1-Methoxyethyl)-2-methylimidazo[1,2-b]pyridazin-7-yl)-N′-(6-(2H-1,2,3-triazol-2-yl)-5-(trifluoromethyl)pyridin-3-yl)urea] | 99% |
| 94% | CC(C)c1c(NC(=O)Nc2cnc(OC(F)F)c(Cl)c2)cnn2cc(Cl)nc12 [Example 8, N-(5-Chloro-6-(difluoromethoxy)pyridin-3-yl)-N′-(2-chloro-8-(propan-2-yl)imidazo[1,2-b]pyridazin-7-yl)urea] |  |
| 105% | CO[C@@H](C)c1c(NC(=O)Nc2cnc(OC(F)F)c(Br)c2)cnn2cc(C)nc12 [Example 35, (S)-N-(5-Bromo-6-(difluoromethoxy)pyridin-3-yl)-N′-(8-(1-methoxyethyl)-2-methylimidazo[1,2-b]pyridazin-7-yl)urea] | 95% |
| 101% | COCc1cnn(-c2ncc(NC(=O)Nc3cnn4cc(C)nc4c3[C@H](C)OC)cc2Cl)n1 [Example 36, (S)-N-[5-Chloro-6-(4-(methoxymethyl)-2H-1,2,3-triazol-2-yl)pyridin-3-yl)-N′-(8-(1-methoxyethyl)-2-methylimidazo[1,2-b]pyridazin-7-yl)urea] | 96% |
| 99% | CO[C@@H](C)c1c(NC(=O)Nc2cc(C(F)(F)F)c(-n3nccn3)nc2C)cnc2ccc(Cl)nc12 [Example 66, (S)-N-(6-Chloro-4-(1-methoxyethyl)-1,5-naphthyridin-3-yl)-N′-(2-methyl-6-(2H-1,2,3-triazol-2-yl)-5-(trifluoromethyl)pyridin-3-yl)urea] | 100% |
| 99% | CC(c1c(NC(=O)Nc2cnc(OC(F)F)c(Cl)c2)cnn2cc(Cl)nc12)C(F)(F)F (stereo not drawn) [Example 173, N-(5-Chloro-6-(difluoromethoxy)pyridin-3-yl)-N′-(2-chloro-8-(1,1,1-trifluoropropan-2-yl)imidazo[1,2-b]pyridazin-7-yl)urea] | 85% |
| 98% | COC(C)c1c(NC(=O)Nc2cnc(-n3nccn3)c(C(F)(F)F)c2)cnc2ccnc(C)c12 (stereo not drawn) [Example 261, N-(4-(1-Methoxyethyl)-5-methyl-1,6-naphthyridin-3-yl)-N'-(6-(2H-1,2,3-triazol-2-yl)-5-(trifluoromethyl)pyridin-3-yl)urea] | 88% |
| 99% | COC(C)c1c(NC(=O)Nc2cnc(-n3nccn3)c(C(F)(F)F)c2)cnc2ccc(=O)n(C)c12 (stereo not drawn) [Example 269, N-(4-(1-Methoxyethyl)-5-methyl-6-oxo-5,6-dihydro-1,5-naphthyridin-3-yl)-N'-(6-(2H-1,2,3-triazol-2-yl)-5-(trifluoromethyl)pyridin-3-yl)urea] | 95% |

Continued, compound first:

| Structure (SMILES) | inhibition at 3 µM (recombinant human MALT1) | inhibition at 3 µM (OCI-Ly3 cells) |
| --- | --- | --- |
| COC(C)(C)c1c(NC(=O)Nc2cnc(-n3nccn3)c(Cl)c2)cnn2cc(C)nc12 [Example 7, N-(5-Chloro-6-(2H-1,2,3-triazol-2-yl)pyridin-3-yl)-N′-(8-(2-methoxypropan-2-yl)-2-methylimidazo[1,2-b]pyridazin-7-yl)urea] | 98% | 95% |
| Cc1cn2ncc(NC(=O)Nc3cnc(-n4nccn4)c(Cl)c3)c(C(C)C)c2n1 [Example 9, N-(5-Chloro-6-(2H-1,2,3-triazol-2-yl)pyridin-3-yl)-N′-(2-methyl-8-(propan-2-yl)imidazo[1,2-b]pyridazin-7-yl)urea] | 99% | 99% |
| CO[C@@H](C)c1c(NC(=O)Nc2cc(C(F)(F)F)c(-n3nccn3)nc2C)cnn2cc(C)nc12 [Example 22, (S)-N-(8-(1-Methoxyethyl)-2-methylimidazo[1,2-b]pyridazin-7-yl)-N′-(2-methyl-6-(2H-1,2,3-triazol-2-yl)-5-(trifluoromethyl)pyridin-3-yl)urea] | 104% | 102% |
| CO[C@@H](C)c1c(NC(=O)Nc2cnc(-n3nccn3)c(C(F)F)c2)cnn2cc(C)nc12 [Example 31, (S)-N-(5-(Difluoromethyl)-6-(2H-1,2,3-triazol-2-yl)pyridin-3-yl)-N′-(8-(1-methoxyethyl)-2-methylimidazo[1,2-b]pyridazin-7-yl)urea] | 103% | 96% |
| COC(C)c1c(NC(=O)Nc2cnc(OC(F)F)c(Cl)c2)cnc2ccc(Cl)nc12 (stereo not drawn) [Example 59, N-(5-Chloro-6-(difluoromethoxy)pyridin-3-yl)-N′-(6-chloro-4-(1-methoxyethyl)-1,5-naphthyridin-3-yl)urea] | 95% | 98% |
| COC(C)c1c(NC(=O)Nc2cnc(-n3nccn3)c(Cl)c2)cnn2cc(Cl)nc12 (stereo not drawn) [Example 133, N-(2-Chloro-8-(1-methoxyethyl)imidazo[1,2-b]pyridazin-7-yl)-N′-(5-chloro-6-(2H-1,2,3-triazol-2-yl)pyridin-3-yl)urea] | 99% | 98% |
| COc1nccc2ncc(NC(=O)Nc3cnc(-n4nccn4)c(C(F)(F)F)c3)c(C(C)OC)c12 (stereo not drawn) [Example 255, N-(5-Methoxy-4-(1-methoxyethyl)-1,6-naphthyridin-3-yl)-N'-(6-(2H-1,2,3-triazol-2-yl)-5-(trifluoromethyl)pyridin-3-yl)urea] | 97% | 99% |
| COc1ncc(NC(=O)Nc2cnc3ccn(C)c(=O)c3c2C(C)OC)cc1Cl (stereo not drawn) [Example 270, N-(5-Chloro-6-methoxypyridin-3-yl)-N'-(4-(1-methoxyethyl)-6-methyl-5-oxo-5,6-dihydro-1,6-naphthyridin-3-yl)urea] | 94% | 40% |
